According to ChEMBL document CHEMBL1201862, “PubChem BioAssay data set” (2004):
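Five concentrations, 48 hours, 96-well plates. Abbreviation: GI50, concentration required for 50% inhibition of growth.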 Activity calls are given as the source filed them. Cut-off read from the data, not from the text of the source: active = GI50 up to about 1.1 µM and inactive = higher.

Tests used:
Assay in all cases: growth of human tumour cells (NCI), 48 h
IGROV-1 = tested on: IGROV-1
786-0 = tested on: 786-0
RXF 393 = tested on: RXF 393
HCT-116 = tested on: HCT-116
UACC-62 = tested on: UACC-62
UO-31 = tested on: UO-31
DMS-114 = tested on: DMS-114
HCC 2998 = tested on: HCC 2998
KM-20L2 = tested on: KM-20L2
M19-MEL = tested on: M19-MEL
NCI-H460 = tested on: NCI-H460
SR = tested on: SR
MCF7 = tested on: MCF7
MDA-MB-231 = tested on: MDA-MB-231
PC-3 = tested on: PC-3
T47D = tested on: T47D
MDA-MB-435 = tested on: MDA-MB-435
Hs-578T = tested on: Hs-578T
BT-549 = tested on: BT-549

`O=C1C=CC=C/C1=C1/SC(c2ccccc2)=C(O)N1c1ccccc1` was tested, and the GI50 (IGROV-1) was > 100 µM (inactive), the GI50 (786-0) was > 100 µM (inactive) and the GI50 (RXF 393) was > 100 µM (inactive). The GI50 (HCT-116) was > 100 µM (inactive), the GI50 (UACC-62) was > 100 µM (inactive) and the GI50 (UO-31) was > 100 µM (inactive). The GI50 (DMS-114) was > 100 µM (inactive), the GI50 (HCC 2998) was > 100 µM (inactive) and the GI50 (KM-20L2) was > 100 µM (inactive). For the same compound, the GI50 (M19-MEL) was > 100 µM (inactive).
`O=C(N/N=C/C=C/c1ccccc1)[C@H](O)[C@@H](O)C(=O)N/N=C/C=C/c1ccccc1` was tested, and the GI50 (IGROV-1) was > 100 µM (inactive), the GI50 (NCI-H460) was > 100 µM (inactive) and the GI50 (RXF 393) was > 100 µM (inactive). For the same compound, the GI50 (HCT-116) was > 100 µM (inactive), the GI50 (UACC-62) was > 100 µM (inactive) and the GI50 (UO-31) was > 100 µM (inactive). The GI50 (DMS-114) was > 100 µM (inactive), the GI50 (HCC 2998) was > 100 µM (inactive) and the GI50 (KM-20L2) was > 100 µM (inactive). The GI50 (SR) was > 100 µM (inactive) and the GI50 (M19-MEL) was > 100 µM (inactive).
In the case of `CCN(CC)C(=O)c1cc(OC(C)C)ccc1-c1c(C)cc(OC(C)C)c(OC)c1OC`, the GI50 (IGROV-1) is reported as > 100 µM (inactive), the GI50 (NCI-H460) is reported as 36.1 µM (inactive) and the GI50 (RXF 393) is reported as 43 µM (inactive). The GI50 (HCT-116) was 38.2 µM (inactive), the GI50 (UACC-62) was 51.8 µM (inactive) and the GI50 (UO-31) was 86.3 µM (inactive). For the same compound, the GI50 (DMS-114) was 36.5 µM (inactive), the GI50 (HCC 2998) was 46.3 µM (inactive) and the GI50 (KM-20L2) was 74 µM (inactive). The GI50 (SR) was 33.6 µM (inactive).
For `COCCO` [2-METHOXYETHANOL], the GI50 (IGROV-1) was > 100 µM (inactive), the GI50 (NCI-H460) was > 100 µM (inactive) and the GI50 (RXF 393) was > 100 µM (inactive). For the same compound, the GI50 (HCT-116) was > 100 µM (inactive), the GI50 (UACC-62) was > 100 µM (inactive) and the GI50 (UO-31) was > 87.3 µM (inactive). The GI50 (HCC 2998) was > 100 µM (inactive), the GI50 (KM-20L2) was > 100 µM (inactive) and the GI50 (MCF7) was > 100 µM (inactive).
`COc1cc2ccc(CC(N)=O)cc2cc1OC` was tested, and the GI50 (IGROV-1) was > 100 µM (inactive), the GI50 (786-0) was > 100 µM (inactive) and the GI50 (RXF 393) was > 100 µM (inactive). The GI50 (HCT-116) was > 100 µM (inactive), the GI50 (UACC-62) was > 100 µM (inactive) and the GI50 (UO-31) was > 100 µM (inactive). For the same compound, the GI50 (DMS-114) was > 100 µM (inactive), the GI50 (KM-20L2) was > 100 µM (inactive) and the GI50 (M19-MEL) was > 100 µM (inactive).
For `COc1cc(C2C(=O)C(Cl)N2Nc2nc(C)cc(O)n2)cc(OC)c1OC` (stereo not drawn), the GI50 (IGROV-1) was 10.1 µM (inactive), the GI50 (NCI-H460) was 9.35 µM (inactive) and the GI50 (RXF 393) was 12.3 µM (inactive). The GI50 (HCT-116) was 16.2 µM (inactive), the GI50 (UACC-62) was > 10 µM (inactive) and the GI50 (UO-31) was 13.4 µM (inactive). For the same compound, the GI50 (DMS-114) was 8.67 µM (inactive), the GI50 (HCC 2998) was 12.9 µM (inactive) and the GI50 (KM-20L2) was 22.6 µM (inactive). For the same compound, the GI50 (SR) was 11.6 µM (inactive) and the GI50 (M19-MEL) was 18.7 µM (inactive).
For `CCC1(OC(=O)CN)C(=O)OCc2c1cc1n(c2=O)Cc2cc3ccccc3nc2-1` (stereo not drawn), the GI50 (IGROV-1) was 0.0411 µM (active), the GI50 (NCI-H460) was 0.01 µM (active) and the GI50 (786-0) was 0.01 µM (active). For the same compound, the GI50 (MDA-MB-231) was 0.38 µM (active), the GI50 (RXF 393) was 0.0378 µM (active) and the GI50 (PC-3) was 0.0661 µM (active). The GI50 (T47D) was 0.012 µM (active), the GI50 (MDA-MB-435) was 0.0564 µM (active) and the GI50 (UACC-62) was 0.01 µM (active). For the same compound, the GI50 (UO-31) was 0.0114 µM (active), the GI50 (Hs-578T) was 6.14 µM (inactive) and the GI50 (DMS-114) was 0.00989 µM (active). The GI50 (HCC 2998) was 0.0664 µM (active), the GI50 (KM-20L2) was 0.124 µM (active) and the GI50 (MCF7) was 0.01 µM (active). The GI50 (SR) was 0.01 µM (active), the GI50 (BT-549) was 0.0593 µM (active) and the GI50 (M19-MEL) was 0.123 µM (active).
